{"source": "patent US20120321609A1", "about": "“METHOD OF TREATING PSYCHOLOGICAL DISORDERS” (priority 2011, published 2012)", "molecules": {"B1": {"name": "Dynamin I-K44A: dominant-negative inhibitor of clathrin-mediated endocytosis, expressed in cells (protein, UniProt Q05193 1-864, looked up, variant K44A)", "Dynamin-1": "MGNRGMEDLIPLVNRLQDAFSAIGQNADLDLPQIAVVGGQSAGASSVLENFVGRDFLPRGSGIVTRRPLVLQLVNATTEYAEFLHCKGKKFTDFEEVRLEIEAETDRVTGTNKGISPVPINLRVYSPHVLNLTLVDLPGMTKVPVGDQPPDIEFQIRDMLMQFVTKENCLILAVSPANSDLANSDALKVAKEVDPQGQRTIGVITKLDLMDEGTDARDVLENKLLPLRRGYIGVVNRSQKDIDGKKDITAALAAERKFFLSHPSYRHLADRMGTPYLQKVLNQQLTNHIRDTLPGLRNKLQSQLLSIEKEVEEYKNFRPDDPARKTKALLQMVQQFAVDFEKRIEGSGDQIDTYELSGGARINRIFHERFPFELVKMEFDEKELRREISYAIKNIHGIRTGLFTPDMAFETIVKKQVKKIREPCLKCVDMVISELISTVRQCTKKLQQYPRLREEMERIVTTHIREREGRTKEQVMLLIDIELAYMNTNHEDFIGFANAQQRSNQMNKKKTSGNQDEILVIRKGWLTINNIGIMKGGSKEYWFVLTAENLSWYKDDEEKEKKYMLSVDNLKLRDVEKGFMSSKHIFALFNTEQRNVYKDYRQLELACETQEEVDSWKASFLRAGVYPERVGDKEKASETEENGSDSFMHSMDPQLERQVETIRNLVDSYMAIVNKTVRDLMPKTIMHLMINNTKEFIFSELLANLYSCGDQNTLMEESAEQAQRRDEMLRMYHALKEALSIIGDINTTTVSTPMPPPVDDSWLQVQSVPAGRRSPTSSPTPQRRAPAVPPARPGSRGPAPGPPPAGSALGGAPPVPSRPGASPDPFGPPPQVPSRPNRAPPGVPSRSGQASPSRPESPRPPFDL"}, "B2": {"name": "Rab11-S25N: dominant negative Rab11 protein inhibiting receptor recycling via slow recycling endosomes (protein, UniProt P62491 2-213, looked up, variant S25N)", "Ras-related protein Rab-11A": "GTRDDEYDYLFKVVLIGDSGVGKNNLLSRFTRNEFNLESKSTIGVEFATRSIQVDGKTIKAQIWDTAGQERYRAITSAYYRGAVGALLVYDIAKHLTYENVERWLKELRDHADSNIVIMLVGNKSDLRHLRAVPTDEARAFAEKNGLSFIETSALDSTNVEAAFQTILTEIYRIVSQKQMSDRRENDMSPSNNVVPIHVPPTTENKPKVQCC"}}, "key": {"5-HT2AR": {"target": "T1, 5-HT2AR (Homo sapiens, UniProt P28223)", "T1 construct": "expressed in transfected cells; host or cells: HEK 293", "test": "5-HT-stimulated inositol phosphate formation in HEK 293 cells transfected with FLAG-5-HT2AR and HA-CRFR1", "assay_type": "cell-based", "settings": "for effect on the CRFR1-dependent increase in 5-HT2AR-stimulated inositol phosphate formation following CRF pretreatment: CRF 500 nM 30 min, monensin 100 μM 30 min, Tat peptide 1 h pretreatment, or co-expressed dominant-negative protein"}, "CRFR1": {"target": "T2, CRFR1 (Homo sapiens, UniProt P34998)", "T2 construct": "expressed in transfected cells; host or cells: HEK 293", "T2 sequence (P34998 24-415)": "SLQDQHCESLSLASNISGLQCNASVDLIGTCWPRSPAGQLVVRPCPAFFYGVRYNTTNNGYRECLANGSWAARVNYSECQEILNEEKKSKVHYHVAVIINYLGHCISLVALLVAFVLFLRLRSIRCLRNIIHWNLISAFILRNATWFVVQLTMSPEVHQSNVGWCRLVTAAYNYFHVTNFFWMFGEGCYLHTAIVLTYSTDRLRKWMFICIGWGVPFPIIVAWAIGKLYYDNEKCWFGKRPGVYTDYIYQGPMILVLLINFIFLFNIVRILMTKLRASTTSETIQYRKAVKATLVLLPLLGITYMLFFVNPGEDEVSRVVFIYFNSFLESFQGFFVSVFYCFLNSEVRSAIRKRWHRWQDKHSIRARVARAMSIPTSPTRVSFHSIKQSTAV", "test": "CRF-stimulated cAMP formation (cAMP-Glo) in HEK 293 cells with FLAG-5-HT2AR and HA-CRFR1", "assay_type": "cell-based", "settings": "5-HT 10 μM pretreatment 30 min", "protocol": "Briefly, HEK 293 cells transiently expressing FLAG-5-HT2AR and HA-CRFR1 were seeded into 96-well plate (10,000 cells/well). Two days after transfection, cells were incubated in the absence or presence of 10 μM 5-HT in induction buffer [HBSS, 500 μM isobutyl-1-methylxanthine (IBMX)] for 30 minutes at 37° C. […] Following stimulation, cells were solubilized with cAMP-Glo lysis buffer for 15 minutes with gentle shaking at room temperature. Lysates were carefully transferred to a white opaque 96-well plate and cAMP-Glo Detection solution containing protein kinase A was added for 20 minutes at room temperature followed by addition of Kinase-Glo Reagent for 10 min. Luminescence was measured using a Victor Reader (Perkin-Elmer, Walthan, Mass.)."}, "mice [1]": {"system": "mice", "test": "Elevated plus maze test (anxiety-related behaviour)", "assay_type": "in vivo, mouse", "settings": "DOI 0.15 mg/kg i.p.; for entries to the closed arms of the plus maze: relative to vehicle", "protocol": "(§1) Male CD-1 mice were obtained from Charles River Canada (St. Constant, Quebec) at 50-60 days of age, and were acclimatized to the laboratory for approximately 30 days before serving as experimental subjects. Mice were housed four per cage, until the time of surgery, after which they were housed individually. The vivarium was maintained on a 12-h light/dark cycle in a temperature (21° C.) controlled room with food and water freely available. Mice were anesthetized using isoflurane and stereotaxic surgery (David Kopf Instruments Model 940) was performed to install a cannulae into the medial prefrontal cortex. A Guide cannulae (Plastics One In), situated according to the mouse atlas of Franklin and Paxinos at Lateral=0.32 mm, D/V=2.25 mm, A/P=+2.68 mm. A dummy cannula, was inserted flush with guide. Approximately 1 week after behavioral testing mice were perfused with 4% paraformaldehyde. Brains were subsequently sectioned at 14 microns and stained with Cresyl violet for probe placement verification. Only the data from mice with correct probe placements were used in the analysis of the behavioral tests.\nDrug diffusion was permitted for 5 min, and then after a further 5 min period mice were injected intraperotineally with DOI (Sigma) at a dose of 0.15 mg/kg or saline. Behavioral testing was conducted 15 min after the DOI treatment. In a second experiment the procedure was identical to that of the preceding study, except that mice were pretreated i.p. with either vehicle or 0.25 mg/kg of M100907 in a volume of 0.3 ml immediately prior to the DOI treatment. As in the preceding study mice were then tested in the elevated plus maze test (n=6-8)/group. Once again, data were obtained from videotapes and the researcher was blind as to the treatments mice had received.\nIn an initial test, mice were placed in a 45×45 cm open field, with an inner square of 21×24×24 cm., for a 5 min period, during which the time to enter the center area, and the total time spent in the center portion of the arena was recorded. The plus maze test was then conducted 1 min after the open field assessment. Mice were individually placed in one of the enclosed arms of a plus-maze and the behavior of the animals was recorded over a 5 min period by a ceiling-mounted video camera. The amount of time spent in each of the arms, the number of arm entries (an arm entry was defined as all four of the paws being placed in an arm of the plus-maze). The elevated plus-maze had two arms enclosed by 21 cm high walls; whereas the remaining two arms were open (arms were 24.8 cm long×7.7 cm wide). The maze was situated in a dimly lit room, such that the closed arms were darkened, whereas open arms were somewhat illuminated. All behavioural experiments were blinded. All experiments complied with the guidelines set by the Canadian Council on Animal Care and were approved by the Carleton University Animal Care Committee."}, "mice [2]": {"system": "mice", "test": "Elevated plus maze test (anxiety-related behaviour)", "assay_type": "in vivo, mouse", "settings": "DOI doses 0.625 and 1.25; data not shown"}, "mice [3]": {"system": "mice", "test": "Open field test (anxiety-related behaviour)", "assay_type": "in vivo, mouse", "settings": "5 min test; CRF 1.5 μg into medial prefrontal cortex, DOI 0.15 mg/kg i.p.; vs vehicle-vehicle or single treatment", "protocol": "as §1, with “Brains were subsequently sectioned at 14 microns and stained with Cresyl violet for probe placement verification. Only the data from mice with correct probe placements were used in the analysis of the behavioral tests.” left out\nIn an initial test, mice were placed in a 45×45 cm open field, with an inner square of 21×24×24 cm., for a 5 min period, during which the time to enter the center area, and the total time spent in the center portion of the arena was recorded. […] Mice were individually placed in one of the enclosed arms of a plus-maze and the behavior of the animals was recorded over a 5 min period by a ceiling-mounted video camera. […]"}, "[4]": {"target": "endogenous CRFR1 of mouse prefrontal cortex (mouse) (UniProt P35347)"}, "HA-CRFR1 [5]": {"target": "HA-CRFR1"}, "HA-CRFR1 [6]": {"target": "HA-CRFR1", "remark": "listed apart in the source"}, "[7]": {"settings": "second experiment (M100907 study), CRF 1.5 μg mPFC, M100907 0.25 mg/kg i.p."}, "[8]": {"settings": "first experiment, CRF 1.5 μg into medial prefrontal cortex"}}, "note": "Ends that are not written are not given here.", "data": [{"molecule": "CC[C@@]1([C@@H]2O[C@@H]([C@H]3O[C@@](O)(CO)[C@H](C)C[C@@H]3C)C[C@@H]2C)CC[C@H]([C@]2(C)CC[C@]3(C[C@H](O)[C@@H](C)[C@@H]([C@@H](C)[C@@H](OC)[C@H](C)C(=O)O)O3)O2)O1", "note": "[monensin]", "values": [{"measurement": "effect on the CRFR1-dependent increase in 5-HT2AR-stimulated inositol phosphate formation following CRF pretreatment", "setting": "5-HT2AR", "value": "attenuated the increase in 5-HT2AR signaling"}, {"measurement": "effect on 5-HT2AR signaling in the absence of CRF pretreatment", "setting": "5-HT2AR; monensin 100 μM for 30 min, no CRF", "value": "did not affect 5-HT2AR signaling"}]}, {"molecule": "NCCc1c[nH]c2ccc(O)cc12", "note": "[5-HT, serotonin]", "values": [{"measurement": "effect of pretreatment on CRFR1 responsiveness (CRFR1-mediated cAMP formation)", "setting": "CRFR1", "value": "had no effect"}]}, {"molecule": "COc1cccc([C@H](O)C2CCN(CCc3ccc(F)cc3)CC2)c1OC", "note": "[M100907]", "values": [{"measurement": "frequency of open arm entries in the plus maze", "setting": "mice [1]; [7]", "value": "did not make any entries onto the open arm"}, {"measurement": "latency to enter the open arms of the plus maze", "setting": "mice [1]; [7]", "value": "none of the mice entered the open arms"}, {"measurement": "time spent in the closed arms of the plus maze", "setting": "mice [1]; [7]", "value": "increased"}, {"measurement": "time spent in the open arms of the plus maze", "setting": "mice [1]; [7]", "value": "profoundly influenced"}, {"measurement": "entries to the closed arms of the plus maze", "setting": "mice [1]; [7]", "value": "reduced the frequency of arm entries"}]}, {"molecule": "COc1cc(CC(C)N)c(OC)cc1I", "note": "(stereo not shown) [DOI, 2,5-dimethoxy-4-iodoamphetamine]", "values": [{"measurement": "arm entries at significantly higher doses of DOI", "setting": "mice [2]", "value": "elevated arm entries"}, {"measurement": "latency to enter an open arm of the plus maze", "setting": "mice [1]; [8]", "value": "modest reduction"}, {"measurement": "number of entries into the closed arms of the plus maze", "setting": "mice [1]; [8]", "value": "did not vary"}, {"measurement": "number of entries onto the open arms of the plus maze", "setting": "mice [1]; [8]", "value": "modest reduction"}, {"measurement": "frequency of open arm entries in the plus maze", "setting": "mice [1]; [7]", "value": "neither CRF nor DOI alone affected the frequency of open arm entries"}, {"measurement": "latency to enter the open arms of the plus maze", "setting": "mice [1]; [7]", "value": "did not influence the latencies"}, {"measurement": "time spent in the closed arms of the plus maze", "setting": "mice [1]; [7]", "value": "unaffected"}, {"measurement": "entries to the closed arms of the plus maze", "setting": "mice [1]; [7]", "value": "increased closed arm entries"}, {"measurement": "latency to enter the center square of open field", "setting": "mice [3]", "value": "neither the CRF nor the DOI treatments alone influenced performance"}]}, {"molecule": "SEEPPISLDLTFHLLREVLEMARAEQLAQQAHSNRKLMEII (ligand, UniProt P06850 154-194, looked up, species assumed, ends and bridges not checked)", "note": "[corticotropin releasing factor (CRF) peptide]", "values": [{"measurement": "5-HT-stimulated inositol phosphate formation in prefrontal cortex slices", "setting": "[4]", "value": 2.3, "unit": "fold"}, {"measurement": "loss of cell surface HA-CRFR1 (flow cytometry)", "setting": "HA-CRFR1 [5]", "value": 24, "unit": "%"}, {"measurement": "cell surface expression of 5-HT2AR (biotinylation)", "setting": "HA-CRFR1 [6]", "value": 3.7, "unit": "fold"}]}, {"molecule": "B1", "values": [{"measurement": "effect on the CRFR1-dependent increase in 5-HT2AR-stimulated inositol phosphate formation following CRF pretreatment", "setting": "5-HT2AR", "value": "completely eliminated"}]}, {"molecule": "B2", "values": [{"measurement": "effect on the CRFR1-dependent increase in 5-HT2AR-stimulated inositol phosphate formation following CRF pretreatment", "setting": "5-HT2AR", "value": "but not the overexpression of Rab11-S25N, blocked the increase"}]}]}
